Assay results published in patent publication US12391686B2, “Compounds and uses thereof” (Foghorn Therapeutics Inc., priority 2019, dated 2025).

Biological target: T1, Nanoluciferase-BRD9 fusion protein (3×FLAG-NLuc-BRD9) in SYO-1 cells (Homo sapiens, UniProt Q9H8M2)
T1 construct: expressed in transfected cells; host or cells: SYO-1
T1 sequence (Q9H8M2 1-597): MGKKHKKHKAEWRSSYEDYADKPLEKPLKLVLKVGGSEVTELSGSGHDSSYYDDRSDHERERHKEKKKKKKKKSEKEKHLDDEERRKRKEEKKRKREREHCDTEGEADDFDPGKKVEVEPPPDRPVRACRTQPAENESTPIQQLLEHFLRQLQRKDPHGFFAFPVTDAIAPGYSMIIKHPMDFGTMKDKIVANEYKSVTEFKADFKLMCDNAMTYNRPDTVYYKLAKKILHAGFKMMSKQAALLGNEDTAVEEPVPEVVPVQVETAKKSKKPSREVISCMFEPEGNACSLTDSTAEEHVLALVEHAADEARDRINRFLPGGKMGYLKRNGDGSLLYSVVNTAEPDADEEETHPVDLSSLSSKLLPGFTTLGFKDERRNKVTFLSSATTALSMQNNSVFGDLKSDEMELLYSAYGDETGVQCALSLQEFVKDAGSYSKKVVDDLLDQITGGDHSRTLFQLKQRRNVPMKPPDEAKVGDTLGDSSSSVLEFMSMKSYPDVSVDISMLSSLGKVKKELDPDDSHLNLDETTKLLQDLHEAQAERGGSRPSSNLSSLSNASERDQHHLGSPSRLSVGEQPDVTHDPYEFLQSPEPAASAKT
Experiment: SYO1 BRD9 NanoLuc Degradation Assay
Assay type: cell-based
Conditions: Table 6B; SYO-1 cells expressing 3×FLAG-NLuc-BRD9, 6 hours incubation, 1 μM top dose; read-out: SYO1 BRD9-NanoLuc degradation IC50
Description: Procedure: A stable SYO-1 cell line expressing 3×FLAG-NLuc-BRD9 was generated. On day 0 cells were seeded in 30 μL media into each well of 384-well cell culture plates. The seeding density was 8000 cells/well. On day 1, cells were treated with 30 nL DMSO or 30 nL of 3-fold serially DMSO-diluted compounds (10 points in duplicates with 1 μM as final top dose). Subsequently plates were incubated for 6 hours in a standard tissue culture incubator and equilibrated at room temperature for 15 minutes. Nanoluciferase activity was measured by adding 15 μL of freshly prepared Nano-Glo Luciferase Assay Reagent (Promega N1130), shaking the plates for 10 minutes and reading the bioluminescence using an EnVision reader.
Results: The Inhibition % was calculated using the following formula: % Inhibition=100×(LumHC−Lumsample)/(LumHC−LumLC). DMSO treated cells are employed as High Control (HC) and 1 μM of a known BRD9 degrader standard treated cells are employed as Low Control (LC).

| DC50 | SMILES |
| --- | --- |
| 10 to 100 nM | COc1cc(-c2cn(C)c(=O)c3cnc(N(C)C)cc23)cc(OC)c1CN1CCC(CCNC(=O)NCc2ccc3c(c2)C(=O)N(C2CCC(=O)NC2=O)C3=O)CC1 (centres unmarked) [Compound D74] |
| < 10 nM | COc1cc(-c2cn(C)c(=O)c3cnc(N(C)C)cc23)cc(OC)c1CN1CCC(C(C)N2CCC3(CC2)CC(Oc2ccc4c(c2)C(=O)N(C2CCC(=O)NC2=O)C4=O)C3)CC1 (centres unmarked) [Compound D75] |
| < 10 nM | COc1cc(-c2cn(C)c(=O)c3cnc(N(C)C)cc23)cc(OC)c1CN1CCN([C@@H](C)COc2ccc3c(c2)C(=O)N(C2CCC(=O)NC2=O)C3=O)CC1 (some centres unmarked) [Compound D76] |
| < 10 nM | COc1cc(-c2cn(C)c(=O)c3cnc(N(C)C)cc23)cc(OC)c1CN1CCN([C@H](C)COc2ccc3c(c2)C(=O)N(C2CCC(=O)NC2=O)C3=O)CC1 (some centres unmarked) [Compound D77] |
| < 10 nM | COc1cc(-c2cn(C)c(=O)c3cnc(N(C)C)cc23)cc(OC)c1CN1CCN(C(C)(C)COc2ccc3c(c2)C(=O)N(C2CCC(=O)NC2=O)C3=O)CC1 (centres unmarked) [Compound D78] |
| < 10 nM | COc1cc(-c2cn(C)c(=O)c3cnc(N4CCC4)cc23)cc(OC)c1CN1CCC(C(=O)N2CCC3(CC2)CC(Oc2ccc4c(c2)C(=O)N(C2CCC(=O)NC2=O)C4=O)C3)CC1 (centres unmarked) [Compound D79] |
| < 10 nM | COc1cc(-c2cn(C)c(=O)c3cnc(N4CCC4)cc23)cc(OC)c1CN1CCC(CN2CCC3(CC2)CC(Oc2ccc4c(c2)C(=O)N(C2CCC(=O)NC2=O)C4=O)C3)CC1 (centres unmarked) [Compound D80] |
| < 10 nM | COc1cc(-c2cn(C)c(=O)c3cnc(N(C)C)cc23)cc(OC)c1CN1CCN(C(C)(C)COc2cccc3c2C(=O)N(C2CCC(=O)NC2=O)C3=O)CC1 (centres unmarked) [Compound D81] |
| < 10 nM | COc1cc(-c2cn(C)c(=O)c3cnc(N(C)C)cc23)cc(OC)c1CN1CCN(C[C@@H](C)Oc2ccc3c(c2)C(=O)N(C2CCC(=O)NC2=O)C3=O)CC1 (some centres unmarked) [Compound D82] |
| < 10 nM | COc1cc(-c2cn(C)c(=O)c3cnc(N(C)C)cc23)cc(OC)c1CN1CCN(C[C@H](C)Oc2ccc3c(c2)C(=O)N(C2CCC(=O)NC2=O)C3=O)CC1 (some centres unmarked) [Compound D83] |
| 10 to 100 nM | COc1cc(-c2cn(C)c(=O)c3cnc(N(C)C)cc23)cc(OC)c1CN1CCC(C[N+]2(C)CCC3(CC2)CC(Oc2ccc4c(c2)C(=O)N(C2CCC(=O)NC2=O)C4=O)C3)CC1 (centres unmarked) [Compound D84] |
| < 10 nM | COc1cc(-c2cn(C)c(=O)c3cnc(N(C)C)cc23)cc(OC)c1CN1CCC(CCN2CCN(c3ccc4c(c3)C(=O)N(C3CCC(=O)N(COC(=O)OC(C)C)C3=O)C4=O)CC2)CC1 (centres unmarked) [Compound D85] |
| < 10 nM | COc1cc(-c2cn(C)c(=O)c3cnc(N(C)C)cc23)cc(OC)c1CN1Cc2cc3c(cc2C1)C(=O)N(C1CCC(=O)NC1=O)C3=O (centres unmarked) [Compound D86] |
| < 10 nM | COc1cc(-c2cn(C)c(=O)c3cnc(N(C)C)cc23)cc(OC)c1CN1CCC(n2cc([C@H](C)Oc3ccc4c(c3)C(=O)N(C3CCC(=O)NC3=O)C4=O)nn2)CC1 (some centres unmarked) [Compound D87] |
| 10 to 100 nM | COc1cc(-c2cn(C)c(=O)c3cnc(N(C)C)cc23)cc(OC)c1CN1CCC(CCN2CCN(C3CCC(=O)NC3=O)C(=O)C2)CC1 (centres unmarked) [Compound D88] |
| < 10 nM | COc1cc(-c2cn(C)c(=O)c3cnc(N(C)C)cc23)cc(OC)c1CN1CC(C#Cc2ccc3c(c2)C(=O)N(C2CCC(=O)NC2=O)C3=O)C1 (centres unmarked) [Compound D89] |
| < 10 nM | COc1cc(-c2cn(C)c(=O)c3cnc(N(C)C)cc23)cc(OC)c1CN1CCC2(CCN(c3ccc4c(c3)C(=O)N(C3CCC(=O)NC3=O)C4=O)C2)C1 (centres unmarked) [Compound D90] |
| < 10 nM | COc1cc(-c2cn(C)c(=O)c3cnc(N(C)C)cc23)cc(OC)c1CN1CCC2(C1)CN(c1ccc3c(c1)C(=O)N(C1CCC(=O)NC1=O)C3=O)C2 (centres unmarked) [Compound D91] |
| < 10 nM | COc1cc(-c2cn(C)c(=O)c3cnc(N(C)C)cc23)cc(OC)c1CN1CCC2CN(c3ccc4c(c3)C(=O)N(C3CCC(=O)NC3=O)C4=O)C21 (centres unmarked) [Compound D92] |
| < 10 nM | COc1cc(-c2cn(C)c(=O)c3cnc(N(C)C)cc23)cc(OC)c1CN1CCC2C(C1)CN2c1ccc2c(c1)C(=O)N(C1CCC(=O)NC1=O)C2=O (centres unmarked) [Compound D93] |
| 10 to 100 nM | COc1cc(-c2cn(C)c(=O)c3cnc(N(C)C)cc23)cc(OC)c1CN1CC(N2CCN(C3CCC(=O)NC3=O)C(=O)C2)C1 (centres unmarked) [Compound D94] |

| DC50 | SMILES |
| --- | --- |
| < 10 nM | COc1cc(-c2cn(C)c(=O)c3cnc(N(C)C)cc23)cc(OC)c1CN1CCN(C2(COc3ccc4c(c3)C(=O)N(C3CCC(=O)NC3=O)C4=O)COC2)CC1 (centres unmarked) [Compound D95] |
| < 10 nM | COc1cc(-c2cn(C)c(=O)c3cnc(N(C)C)cc23)cc(OC)c1CN1CCN(CC(C)(C)Oc2ccc3c(c2)C(=O)N(C2CCC(=O)NC2=O)C3=O)CC1 (centres unmarked) [Compound D96] |
| < 10 nM | COc1cc(-c2cn(C)c(=O)c3cnc(N(C)C)cc23)cc(OC)c1CN1CC(C(C)(C)N2CCC3(CC2)CN(c2ccc4c(c2)C(=O)N(C2CCC(=O)NC2=O)C4=O)C3)C1 (centres unmarked) [Compound D97] |
| < 10 nM | COc1cc(-c2cn(C)c(=O)c3cnc(N(C)C)cc23)cc(OC)c1CN1CC(Oc2ccc3c(c2)C(=O)N(C2CCC(=O)NC2=O)C3=O)C1 (centres unmarked) [Compound D98] |
| < 10 nM | COc1cc(-c2cn(C)c(=O)c3cnc(N(C)C)cc23)cc(OC)c1CN1CCC(C(N2CCC3(CC2)CC(Oc2ccc4c(c2)C(=O)N(C2CCC(=O)NC2=O)C4=O)C3)C(F)(F)F)CC1 (centres unmarked) [Compound D99] |
| < 10 nM | COc1cc(-c2cn(C)c(=O)c3cnc(N(C)C)cc23)cc(OC)c1CN1CCN(C2(COc3cccc4c3C(=O)N(C3CCC(=O)NC3=O)C4=O)COC2)CC1 (centres unmarked) [Compound D100] |
| < 10 nM | COc1cc(-c2cn(C)c(=O)c3cnc(N(C)C)cc23)cc(Cl)c1CN1CCC(CN2CCC3(CC2)CC(Oc2ccc4c(c2)C(=O)N(C2CCC(=O)NC2=O)C4=O)C3)CC1 (centres unmarked) [Compound D101] |
| < 10 nM | COc1cc(-c2cn(C)c(=O)c3cnc(N(C)C)cc23)cc(Cl)c1CN1CCC(C(=O)N2CCC3(CC2)CC(Oc2ccc4c(c2)C(=O)N(C2CCC(=O)NC2=O)C4=O)C3)CC1 (centres unmarked) [Compound D102] |
| < 10 nM | COc1cc(-c2cn(C)c(=O)c3cnc(N(C)C)cc23)cc(OC)c1CN1CCC(CN2CCC3(CC2)CC(Oc2ccc4c(c2)CN(C2CCC(=O)NC2=O)C4=O)C3)CC1 (centres unmarked) [Compound D103] |
| < 10 nM | COc1cc(-c2cn(C)c(=O)c3cnc(N(C)C)cc23)cc(OC)c1CN1CCC(c2ccc3c(c2)C(=O)N(C2CCC(=O)NC2=O)C3=O)CC1 (centres unmarked) [Compound D104] |
| < 10 nM | COc1cc(-c2cn(C)c(=O)c3cnc(N(C)C)cc23)cc(OC)c1CN1CCN(CCC2CCN(c3ccc4c(c3)C(=O)N(C3CCC(=O)NC3=O)C4=O)CC2)CC1 (centres unmarked) [Compound D105] |
| < 10 nM | CNc1cc2c(-c3cc(OC)c(CN4CCN(CCC5CCN(c6ccc7c(c6)C(=O)N(C6CCC(=O)NC6=O)C7=O)CC5)CC4)c(OC)c3)cn(C)c(=O)c2cn1 (centres unmarked) [Compound D106] |
| < 10 nM | COc1cc(-c2cn(C)c(=O)c3cnc(N(C)C)cc23)cc(OC)c1CN1CCC(CN2CCC3(CC2)CC(Oc2ccc4c(c2)C(=O)N(C2CCC(=O)NC2=O)C4)C3)CC1 (centres unmarked) [Compound D107] |
| < 10 nM | COc1cc(-c2cn(C)c(=O)c3cnc(N(C)C)cc23)cc(OC)c1CN1CCC(C(C)(C)N2CCC3(CC2)CC(Oc2ccc4c(c2)C(=O)N(C2CCC(=O)NC2=O)C4=O)C3)CC1 (centres unmarked) [Compound D108] |
| < 10 nM | COc1cc(-c2cn(C)c(=O)c3cnc(N(C)C)cc23)cc(OC)c1CN1CCN(C2(COc3ccc4c(c3)C(=O)N(C3CCC(=O)NC3=O)C4=O)CC2)CC1 (centres unmarked) [Compound D109] |
| < 10 nM | COc1cc(-c2cn(C)c(=O)c3cnc(N(C)C)cc23)cc(OC)c1CN1CC(C(C)N2CCC3(CC2)CN(c2ccc4c(c2)C(=O)N(C2CCC(=O)NC2=O)C4=O)C3)C1 (centres unmarked) [Compound D110] |
| < 10 nM | COc1cc(-c2cn(C)c(=O)c3cnc(N(C)C)cc23)cc(OC)c1CN1CCC(C(=O)N2CCC3(CC2)CC(Oc2ccc4c(c2)C(=O)N(C2CCC(=O)NC2=O)C4=O)C3)C(OC)C1 (centres unmarked) [Compound D111] |
| < 10 nM | CCc1cc(-c2cn(C)c(=O)c3cnc(N(C)C)cc23)cc(OC)c1CN1CCC(CN2CCC3(CC2)CC(Oc2ccc4c(c2)C(=O)N(C2CCC(=O)NC2=O)C4=O)C3)CC1 (centres unmarked) [Compound D112] |
| < 10 nM | COc1cc(-c2cn(C)c(=O)c3cnc(N(C)C)cc23)cc(OC)c1CN1CCN(c2ccc3c(c2)C(=O)N(C2CCC(=O)NC2=O)C3)CC1 (centres unmarked) [Compound D113] |
| < 10 nM | COc1cc(-c2cn(C)c(=O)c3cnc(N(C)C)cc23)cc(OC)c1CN1CCN(c2ccc3c(c2)CN(C2CCC(=O)NC2=O)C3=O)CC1 (centres unmarked) [Compound D114] |
